These results are taken from ChEMBL document CHEMBL5223138, “Lead identification of novel tetrahydroimidazo[1,2-a]pyridine-5-carboxylic acid derivative as a potent heparanase-1 inhibitor” (Bioorg Med Chem Lett, 2023).

By IC50 is commonly meant the midpoint of a concentration-inhibition curve. Read a high IC50 as a need for much substance. What is called Ki is the equilibrium dissociation constant of an inhibitor or competing ligand from its target. Read a low Ki as tighter binding.

One test concerns the target T1, Heparanase (Homo sapiens, UniProt Q9Y251).
T1 sequence (Q9Y251 whole entry): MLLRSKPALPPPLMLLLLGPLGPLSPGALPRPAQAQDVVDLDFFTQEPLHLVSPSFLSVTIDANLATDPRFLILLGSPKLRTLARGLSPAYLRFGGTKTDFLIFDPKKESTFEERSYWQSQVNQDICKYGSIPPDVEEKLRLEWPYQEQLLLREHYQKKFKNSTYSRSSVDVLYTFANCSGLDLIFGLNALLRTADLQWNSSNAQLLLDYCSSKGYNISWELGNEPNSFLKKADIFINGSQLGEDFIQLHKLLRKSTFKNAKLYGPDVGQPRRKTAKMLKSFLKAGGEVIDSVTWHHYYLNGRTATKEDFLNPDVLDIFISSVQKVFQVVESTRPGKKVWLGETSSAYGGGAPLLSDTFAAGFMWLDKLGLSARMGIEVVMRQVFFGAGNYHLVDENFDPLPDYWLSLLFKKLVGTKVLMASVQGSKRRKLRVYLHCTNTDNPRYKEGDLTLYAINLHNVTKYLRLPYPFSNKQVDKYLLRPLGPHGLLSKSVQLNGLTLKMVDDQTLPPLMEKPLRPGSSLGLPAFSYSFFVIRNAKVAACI
Nature of the test: Inhibition of Heparanase-1 (unknown origin) by HTRF method. For orientation: Time-resolved FRET reads energy transfer from a long-lived donor to a nearby acceptor.

Test [1] in a line: Binding affinity to bovine liver beta-glucuronidase. Details: species or system Bos taurus.

`CCCCCCCCCCCCCCCc1cc(O[C@@H]2O[C@H](C(=O)O)[C@@H](O)[C@H](O)[C@H]2O)cc(O)c1C(=O)Oc1cc(C)c(C(=O)O)c(O)c1` gave an IC50 on Heparanase of 9.19 µM.

At Heparanase, `O=C(O)[C@@H]1[C@@H](O)[C@H](O)[C@@H](O)c2nc(CCc3ccc(C(F)(F)F)cc3)cn21` gave an IC50 of 3.41 µM. In test [1], `O=C(O)[C@@H]1[C@@H](O)[C@H](O)[C@@H](O)c2nccn21` gave a Ki of 0.012 µM.
